According to patent US9102835B2, “Methods of using dyes in association with nucleic acid staining or detection and associated technology” (Biotium, Inc., priority 2005, dated 2015):
Entries after “also recorded” stand apart in the source; their conditions may differ.

Columns and labels:
[1] = system: 1 kb Plus DNA Latter in agarose gel; test: Pre-cast DNA gel staining; settings: 1.2 μM in TBE versus EB 1.3 μM; 300 nm UV
Procedure: An agarose gel solution (1% agarose) was prepared following a standard protocol (J. Roskams et al., Lab Ref: A Handbook of Recipes, Reagents, and Other Reference Tools for Use at the Bench, Cold Spring Harbor Laboratory Press, Cold Spring Harbor, N.Y., 2002). A stock solution of a Dye No. 35 (ET-27) of Table 1 in DMF at 12 mM concentration was prepared. An aliquot of the stock solution of dye was added to the gel solution, while it was hot, resulting in an effective working concentration of the dye of about 1.2 μM. The resulting solution was thoroughly mixed by swirling. The resulting gel solution was poured onto a gel slab to cast the gel. Serial two-fold dilutions of 1 kb Plus DNA Latter from Invitrogen Co. (Carlsbad, Calif.) were made and the resulting DNA samples were loaded onto the gel in four lanes from left to right with a loading of 200 ng, 100 ng, 50 ng, and 25 ng per lane, respectively. The DNA samples were electrophoretically separated in 1×TBE buffer using a standard protocol. The resulting gel was then viewed using a UV transilluminator with 300 nm excitation. The same procedure was followed using a stock solution of EB at about 0.5 μg/mL (or 1.3 μM) in DMF in place of the stock solution of Dye No. 35 of Table 1.
It should be noted that other dyes described herein may be prepared and employed in the manner described in this Example 49, or a similar manner.

[2] = Hydrolytic, thermal and storage stability in water, electrophoresis buffers and pre-cast gels; type: physicochemical
[3] = Stability in TBE buffer, optical density at absorption maximum over 24 hours; type: physicochemical; settings: 1.2 μM in 1×TBE buffer, room temperature, monitored at 500 nm
Procedure: SYBR Gold 10,000× in DMSO from Molecular Probes, Inc. (Eugene, Oreg.) was diluted to 1× working concentration, as recommended by the manufacturer, in 1×TBE buffer. A stock solution of Dye No. 35 of Table 1 in DMSO (12 mM) was diluted to 1.2 μM in 1×TBE buffer. The optical density associated with each of the solutions was monitored at the absorption maximum of the dye (488 nm for SYBR Gold and 500 nm for Dye No. 35) over the course of a 24-hour period at room temperature.

[4] = system: Salmonella typhimurium bacteria, strain TA98; test: Mutagenicity assay, Muta-ChromoPlate test kit (based on the Ames Test, bacterial reverse mutation); settings: for Mutagenicity relative to the negative control: in the absence of S9 extract; for Positive wells: with S9 extract (rat liver); for Positive wells / Positive wells, Exp 1 / Positive wells, Exp 2: positive wells out of 36, TA98; for Positive wells, Exp 1 / Positive wells, Exp 2: without S9 extract
From the text: The test kit is based on the Ames Test, a bacterial reverse mutation test. The test employs a mutant strain, or several strains, of Salmonella typhimurium bacteria, carrying mutation(s) in the operon coding for histidine biosynthesis. When the bacteria are exposed to mutagenic agents under certain conditions, reverse mutation from amino acid (histidine) auxotrophy to prototrophy occurs. […] S9 extract is a rat liver extract that comprises various metabolic enzymes. The tests associated with the presence of S9 extract were undertaken to give information on the potential genotoxicity of the metabolized dyes. […] Each single test was carried out using 36 wells and the number of positive wells out of each 36 wells was taken as an indicator of the relative mutagenicity levels of the dye under the test conditions. As a negative control, bacteria were also incubated in the absence of a dye.
Mutagenicity assays were carried out using a Muta-ChromoPlate test kit from EBPI (Brampton, Ontario, Canada). […] A solution without a dye (zero dose level) was assayed in the absence and presence of S9 extract, as a control or negative control. S9 extract is a rat liver extract that comprises various metabolic enzymes. The tests associated with the presence of S9 extract were undertaken to provide information on the potential genotoxicity of the metabolized dyes. […] Each single test was carried out using 36 wells and the number of positive wells out of each 36 wells was taken as an indicator of the relative mutagenicity levels of the dye under the test conditions.

[5] = cited from earlier work
[6] = system: 1 kb Plus DNA Latter in agarose gel; test: Post-DNA gel staining
Procedure: Serial two-fold dilutions of 1 kb Plus DNA Latter from Invitrogen Co. (Carlsbad, Calif.) were made and the resulting DNA samples were loaded onto an agarose gel in four lanes from left to right with a loading of 200 ng, 100 ng, 50 ng, and 25 ng per lane, respectively. The DNA samples were electrophoretically separated in 1×TBE buffer using a standard protocol. The nucleic acid sample was loaded onto the gel from in four columns from left to right with a loading of 200 ng, 100 ng, 50 ng, and 25 ng per lane, respectively, and electrophoretically separated in 1×TBE buffer using a standard protocol. A stock solution of a Dye No. 20 of Table 1 in DMF at about 12 mM concentration was prepared. […] The agarose gel was submerged in the staining solution for approximately 30 minutes to stain the gel. The resulting gel was then viewed using a UV transilluminator with 254 nm excitation.
A similar procedure was followed to prepare post gel staining solutions of Dye No. 29 of Table 1, except that Dye No. 29 was used in place of Dye No. 20 and at various conditions, as now described. […] Identical DNA samples were prepared, loaded onto three separate agarose gels, and separated via standard gel electrophoreses, in the manner described above. Each of the three separate gels was then stained by immersion in a different one of the resulting gels for about 30 minutes. […]

[7] = system: Salmonella typhimurium bacteria, strain TA98; settings: cited from earlier work
[8] = pre-cast gel prepared with the dye

SMILES: Nc1ccc2c(c1)c(-c1ccccc1)[n+](CCCCCC(=O)NCCCOCCOCCOCCCNC(=O)CCCCC[n+]1c(-c3ccccc3)c3cc(N)ccc3c3ccc(N)cc31)c1cc(N)ccc21 [Dye No. 35, ET-27]
- Sensitivity with respect to low level DNA, relative to EB [1]: more sensitive with respect to low level DNA
- Sensitivity with respect to shorter DNA fragments, relative to EB [1]: more sensitive with respect to shorter DNA fragments
- Time heated in a microwave oven without decomposition ([2]; dye in TBE buffer): 10 min
- Storage time of pre-cast gel without loss of performance [2, 8]: 3 months
- Time stable in an electrophoresis buffer, such as TBE buffer ([2]; room temperature): 6 months
- Absorbance over the 24-hour period [3]: relatively constant
- Toxicity and mutagenicity, overall statement ([4]; comparison of Dye No. 35 with EB): relatively low in toxicity and mutagenicity; also recorded: may be less mutagenic than EB
- Mutagenicity relative to the negative control [4]: very weak mutagenicity
- Positive wells ([4]; 0.25 nmole): 0
- Positive wells ([4]; 2.5 nmoles): 9
- Positive wells ([4]; 25 nmoles): 0
- Positive wells, Exp 1 ([4]; 0.25 nmole): 2
- Positive wells, Exp 2 ([4]; 0.25 nmole): 0
- Positive wells, Exp 1 ([4]; 2.5 nmoles): 1
- Positive wells, Exp 2 ([4]; 2.5 nmoles): 3
- Positive wells, Exp 1 ([4]; 25 nmoles): 1
- Positive wells, Exp 2 ([4]; 25 nmoles): 3

SMILES: CCCN(CCCN(C)C)c1cc(/C=C2/Sc3ccccc3N2C)c2ccccc2[n+]1-c1ccccc1 [SYBR Green I]
- Hydrolytic stability ([5]; aqueous solution, particularly buffers having a pH of 7 or more): hydrolytically unstable
- Time within which pre-cast gel is used before losing utility [5, 8]: 24 h
- DNA band brightness in post-DNA gel staining ([6]; staining solution in 1×TBE that lacked NaCl): relatively weaker or less bright DNA bands overall

SMILES: C[n+]1c(C=C2C=CN(CCCCCC(=O)NCCCOCCOCCOCCCNC(=O)CCCCCN3C=CC(=Cc4sc5ccccc5[n+]4C)c4ccccc43)c3ccccc32)sc2ccccc21 [Dye No. 29, TOTO-13]
- Sensitivity in post-DNA gel staining versus SYBR Safe and SYBR Green I ([6]; dye 3.6 μM, SYBR dyes 1× in TBE, 200-25 ng DNA per lane, 254-nm UV transilluminator): substantially more sensitive than SYBR Safe and is as sensitive as SYBR Green I

SMILES: CC[n+]1c(-c2ccccc2)c2cc(N)ccc2c2ccc(N)cc21 [EB, ethidium bromide, reference compound]
- Frame shift mutagenicity in Ames Test (known) [7]: known frame shift mutagen
- Mutagenicity relative to the negative control [4]: very weak mutagenicity
- Mutagenicity ([4]; in the presence of S9 extract): significantly greater mutagenicity than Dye No. 35
- Positive wells ([4]; 0.25 nmole): 22
- Positive wells ([4]; 2.5 nmoles): 17
- Positive wells ([4]; 25 nmoles): 16
- Positive wells, Exp 1 ([4]; 0.25 nmole): 0
- Positive wells, Exp 2 ([4]; 0.25 nmole): 0
- Positive wells, Exp 1 ([4]; 2.5 nmoles): 0
- Positive wells, Exp 2 ([4]; 2.5 nmoles): 3
- Positive wells, Exp 1 ([4]; 25 nmoles): 0
- Positive wells, Exp 2 ([4]; 25 nmoles): 3
